Assay results from patent US20230139171A1 (SITA Information Networking Computing UK Limited, priority 2019, published 2023).

Legend:
Assay type in all cases: cell-based
human TLR8 = target: T1, human TLR8 (Homo sapiens, UniProt Q9NR97); experiment: TLR8 inhibition reporter assay (HEK-Blue cells, SEAP reporter, R848 stimulation); settings: HEK-Blue cells overexpressing human TLR8, SEAP reporter, R848 15.9 μM; read-out: TLR8 IC50
T1 construct: host or cells: HEK-Blue cells
T1 sequence (Q9NR97 27-1041): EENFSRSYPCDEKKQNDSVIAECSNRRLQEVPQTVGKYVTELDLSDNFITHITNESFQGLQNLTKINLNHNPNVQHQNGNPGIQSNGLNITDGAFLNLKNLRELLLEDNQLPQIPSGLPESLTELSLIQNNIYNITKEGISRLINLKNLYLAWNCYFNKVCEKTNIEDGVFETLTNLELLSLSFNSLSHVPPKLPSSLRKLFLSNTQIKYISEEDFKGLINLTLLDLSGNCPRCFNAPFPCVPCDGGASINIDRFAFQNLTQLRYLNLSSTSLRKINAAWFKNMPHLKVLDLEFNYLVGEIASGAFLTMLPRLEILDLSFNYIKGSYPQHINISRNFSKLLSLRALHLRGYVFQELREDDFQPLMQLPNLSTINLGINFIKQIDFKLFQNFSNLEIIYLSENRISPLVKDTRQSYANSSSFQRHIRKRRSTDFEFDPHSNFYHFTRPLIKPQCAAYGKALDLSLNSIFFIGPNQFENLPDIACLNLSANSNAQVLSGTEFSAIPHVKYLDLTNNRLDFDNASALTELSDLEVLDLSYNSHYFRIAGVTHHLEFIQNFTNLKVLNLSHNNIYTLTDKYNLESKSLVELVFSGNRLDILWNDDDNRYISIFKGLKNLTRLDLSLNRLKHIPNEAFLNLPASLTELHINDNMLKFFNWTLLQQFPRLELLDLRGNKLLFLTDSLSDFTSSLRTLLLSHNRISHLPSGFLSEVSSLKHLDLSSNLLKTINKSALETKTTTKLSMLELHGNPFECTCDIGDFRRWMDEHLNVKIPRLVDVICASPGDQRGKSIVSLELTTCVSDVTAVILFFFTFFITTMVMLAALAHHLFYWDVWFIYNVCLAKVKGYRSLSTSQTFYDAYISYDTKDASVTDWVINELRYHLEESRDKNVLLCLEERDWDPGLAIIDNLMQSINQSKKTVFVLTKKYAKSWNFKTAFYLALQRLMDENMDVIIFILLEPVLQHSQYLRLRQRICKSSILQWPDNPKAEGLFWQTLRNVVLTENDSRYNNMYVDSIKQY
How it was run: (§1)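 Screening used HEK-Blue cells overexpressing one human TLR (7, 8 or 9) and an IFN-β minimal promoter–NF-κB/AP-1 SEAP construct. Stimulation lasted 22 h at 37 °C with receptor-specific agonist: gardiquimod, R848 or ODN2006 at 7.5 μM, 15.9 μM and 5 nM.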

human TLR9 = target: T2, human TLR9 (Homo sapiens, UniProt Q9NR96); experiment: TLR9 inhibition reporter assay (HEK-Blue cells, SEAP reporter, ODN2006 stimulation); settings: HEK-Blue cells overexpressing human TLR9, SEAP reporter, ODN2006 5 nM
T2 construct: host or cells: HEK-Blue cells
T2 sequence (Q9NR96 26-1032): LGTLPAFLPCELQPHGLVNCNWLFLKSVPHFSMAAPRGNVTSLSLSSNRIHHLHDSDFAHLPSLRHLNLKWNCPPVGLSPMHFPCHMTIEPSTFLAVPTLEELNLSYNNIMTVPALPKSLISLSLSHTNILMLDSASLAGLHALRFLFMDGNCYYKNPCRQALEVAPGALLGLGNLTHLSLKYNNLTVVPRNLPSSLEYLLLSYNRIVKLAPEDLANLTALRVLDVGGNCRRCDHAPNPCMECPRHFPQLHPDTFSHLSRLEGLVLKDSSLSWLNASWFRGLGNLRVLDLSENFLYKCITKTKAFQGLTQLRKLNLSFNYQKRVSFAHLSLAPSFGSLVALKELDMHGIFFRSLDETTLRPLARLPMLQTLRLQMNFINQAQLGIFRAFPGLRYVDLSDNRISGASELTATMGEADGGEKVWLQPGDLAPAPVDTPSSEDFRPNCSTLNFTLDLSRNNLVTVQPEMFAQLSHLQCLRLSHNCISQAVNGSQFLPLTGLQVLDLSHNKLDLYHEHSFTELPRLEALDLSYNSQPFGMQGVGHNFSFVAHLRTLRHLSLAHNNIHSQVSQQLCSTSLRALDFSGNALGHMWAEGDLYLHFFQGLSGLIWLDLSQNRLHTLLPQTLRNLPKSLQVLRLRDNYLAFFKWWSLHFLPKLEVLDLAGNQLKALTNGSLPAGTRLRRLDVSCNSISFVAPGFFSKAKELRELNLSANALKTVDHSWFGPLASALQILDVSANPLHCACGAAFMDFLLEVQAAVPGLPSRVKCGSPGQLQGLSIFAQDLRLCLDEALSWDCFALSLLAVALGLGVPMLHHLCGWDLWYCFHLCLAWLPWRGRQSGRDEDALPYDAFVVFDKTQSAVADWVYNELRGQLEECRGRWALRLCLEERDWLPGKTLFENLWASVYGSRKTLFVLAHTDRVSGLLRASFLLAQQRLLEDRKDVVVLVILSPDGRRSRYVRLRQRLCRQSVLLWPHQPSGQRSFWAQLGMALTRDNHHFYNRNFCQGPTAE
How it was run: as §1

human TLR7 = target: T3, human TLR7 (Homo sapiens, UniProt Q9NYK1); experiment: TLR7 inhibition reporter assay (HEK-Blue cells, SEAP reporter, gardiquimod stimulation); settings: HEK-Blue cells overexpressing human TLR7, SEAP reporter, gardiquimod 7.5 μM; read-out: TLR7 IC50
T3 construct: host or cells: HEK-Blue cells
T3 sequence (Q9NYK1 27-1049): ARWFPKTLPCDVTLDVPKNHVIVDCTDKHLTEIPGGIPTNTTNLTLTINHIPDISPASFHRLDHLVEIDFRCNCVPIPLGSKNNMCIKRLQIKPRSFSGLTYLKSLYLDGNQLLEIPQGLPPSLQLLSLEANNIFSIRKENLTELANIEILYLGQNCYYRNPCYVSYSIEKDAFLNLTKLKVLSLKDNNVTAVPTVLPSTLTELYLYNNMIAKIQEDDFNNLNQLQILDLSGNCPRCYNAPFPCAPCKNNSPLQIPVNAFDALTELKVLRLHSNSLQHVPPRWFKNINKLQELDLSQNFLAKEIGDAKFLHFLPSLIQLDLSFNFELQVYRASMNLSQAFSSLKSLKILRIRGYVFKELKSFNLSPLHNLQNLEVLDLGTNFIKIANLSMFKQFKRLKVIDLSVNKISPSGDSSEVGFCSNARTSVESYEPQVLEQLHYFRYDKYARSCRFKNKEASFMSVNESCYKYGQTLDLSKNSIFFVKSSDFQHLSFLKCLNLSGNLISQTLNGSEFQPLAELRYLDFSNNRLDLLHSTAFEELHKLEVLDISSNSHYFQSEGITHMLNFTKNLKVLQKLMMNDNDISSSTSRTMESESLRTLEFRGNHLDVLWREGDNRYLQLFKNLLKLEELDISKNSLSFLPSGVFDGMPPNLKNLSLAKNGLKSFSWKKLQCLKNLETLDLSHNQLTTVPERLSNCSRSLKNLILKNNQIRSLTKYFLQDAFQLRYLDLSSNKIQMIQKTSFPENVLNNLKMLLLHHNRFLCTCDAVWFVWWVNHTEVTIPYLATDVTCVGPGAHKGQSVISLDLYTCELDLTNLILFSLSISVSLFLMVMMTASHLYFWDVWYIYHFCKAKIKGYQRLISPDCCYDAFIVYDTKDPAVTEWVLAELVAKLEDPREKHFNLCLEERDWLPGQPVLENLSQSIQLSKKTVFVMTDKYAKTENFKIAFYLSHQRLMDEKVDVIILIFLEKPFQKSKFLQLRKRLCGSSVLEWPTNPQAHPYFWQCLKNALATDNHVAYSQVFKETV
How it was run: as §1

Row | Compound | IC50 (human TLR8) [nM] | IC50 (human TLR9) [nM] | IC50 (human TLR7) [nM]
1 | Cc1c(-c2[nH]c3sc(C(=O)NC4CCC(N(C)C)CC4)nc3c2C(C)C)cn2ncnc2c1C (single isomer, unassigned) [Example 368, 5-(7,8-dimethyl-[1,2,4]triazolo[1,5-a]pyridin-6-yl)-N-(4-(dimethylamino)cyclohexyl)-6-isopropyl-4H-pyrrolo[3,2-d]thiazole-2-carboxamide] | 28.1 | 5460 | 10.5
2 | Cc1c(-c2[nH]c3sc(C(=O)NC4CCC(N(C)C)CC4)nc3c2C(C)C)cn2ncnc2c1C (single isomer, unassigned) [Example 369, 5-(7,8-dimethyl-[1,2,4]triazolo[1,5-a]pyridin-6-yl)-N-(4-(dimethylamino)cyclohexyl)-6-isopropyl-4H-pyrrolo[3,2-d]thiazole-2-carboxamide] | 33 | 46900 | 18
3 | COc1cc(-c2[nH]c3sc(C4CCNCC4)nc3c2C(C)C)cn2ncnc12 [Example 1, 6-isopropyl-5-(8-methoxy-[1,2,4]triazolo[1,5-a]pyridin-6-yl)-2-(piperidin-4-yl)-4H-pyrrolo[3,2-d]thiazole] | 8.14 | 760 | 2.01
4 | Cc1cc(-c2[nH]c3sc(C4CCNCC4)nc3c2C(C)C)cn2ncnc12 [Example 2, 6-isopropyl-5-(8-methyl-[1,2,4]triazolo[1,5-a]pyridin-6-yl)-2-(piperidin-4-yl)-4H-pyrrolo[3,2-d]thiazole] | 5.82 | 6560 | 2.27
5 | CC(C)c1c(-c2cn(C)c3ncccc23)[nH]c2sc(C3CCNCC3)nc12 [Example 3, 6-isopropyl-5-(1-methyl-1H-pyrrolo[2,3-b]pyridin-3-yl)-2-(piperidin-4-yl)-4H-pyrrolo[3,2-d]thiazole] | 3.05 | 18500 | 1.84
6 | Cc1cc(-c2[nH]c3sc(C4CCNCC4)nc3c2C(C)C)cc(C)n1 [Example 4, 5-(2,6-dimethylpyridin-4-yl)-6-isopropyl-2-(piperidin-4-yl)-4H-pyrrolo[3,2-d]thiazole] | 33.9 | 287 | 5.52
7 | COc1cc(-c2[nH]c3sc(C4CCN(C(=O)CN(C)C)CC4)nc3c2C(C)C)cn2ncnc12 [Example 6, 2-(dimethylamino)-1-(4-(6-isopropyl-5-(8-methoxy-[1,2,4]triazolo[1,5-a]pyridin-6-yl)-4H-pyrrolo[3,2-d]thiazol-2-yl)piperidin-1-yl)ethan-1-one] | 20.9 | 1100 | 2.05
8 | COc1cc(-c2[nH]c3sc(C4CCN(CC(=O)N(C)C)CC4)nc3c2C(C)C)cn2ncnc12 [Example 7, 2-(4-(6-isopropyl-5-(8-methoxy-[1,2,4]triazolo[1,5-a]pyridin-6-yl)-4H-pyrrolo[3,2-d]thiazol-2-yl)piperidin-1-yl)-N,N-dimethylacetamide] | 6.59 | 5470 | 7.8
9 | CNC(=O)CN1CCC(c2nc3c(C(C)C)c(-c4cc(OC)c5ncnn5c4)[nH]c3s2)CC1 [Example 8, 2-(4-(6-isopropyl-5-(8-methoxy-[1,2,4]triazolo[1,5-a]pyridin-6-yl)-4H-pyrrolo[3,2-d]thiazol-2-yl)piperidin-1-yl)-N-methylacetamide] | 5.42 | 30900 | 2.47
10 | COc1cc(-c2[nH]c3sc(C4CCN(C(C)C)CC4)nc3c2C(C)C)cn2ncnc12 [Example 10, 6-isopropyl-2-(1-isopropylpiperidin-4-yl)-5-(8-methoxy-[1,2,4]triazolo[1,5-a]pyridin-6-yl)-4H-pyrrolo[3,2-d]thiazole] | 1.9 | 1330 | 1.37
11 | COc1cc(-c2[nH]c3sc(C4CCN(C5COC5)CC4)nc3c2C(C)C)cn2ncnc12 [Example 11, 6-isopropyl-5-(8-methoxy-[1,2,4]triazolo[1,5-a]pyridin-6-yl)-2-(1-(oxetan-3-yl)piperidin-4-yl)-4H-pyrrolo[3,2-d]thiazole] | 9.31 | 18500 | 3.78
12 | COc1cc(-c2[nH]c3sc(C4CCN(C5CCOCC5)CC4)nc3c2C(C)C)cn2ncnc12 [Example 12, 6-isopropyl-5-(8-methoxy-[1,2,4]triazolo[1,5-a]pyridin-6-yl)-2-(1-(tetrahydro-2H-pyran-4-yl)piperidin-4-yl)-4H-pyrrolo[3,2-d]thiazole] | 0.86 | 2150 | 1.59
13 | COc1cc(-c2[nH]c3sc(C4CCN(CC(C)(C)C)CC4)nc3c2C(C)C)cn2ncnc12 [Example 13, 6-isopropyl-5-(8-methoxy-[1,2,4]triazolo[1,5-a]pyridin-6-yl)-2-(1-neopentylpiperidin-4-yl)-4H-pyrrolo[3,2-d]thiazole] | 2.03 | 3330 | 5.04
